Results from paper PMC4868641 (Chemical research in toxicology, 2016).

Columns and labels:
human kidney microsomes [1] = assay: P450-mediated N-oxidation in human kidney microsomes; type: in vitro ADME; details: limit of detection 50 pmol/min/mg protein
mice = details: cited from earlier work
[2] = pH 7.0; cited from earlier work
calf thymus DNA = assay: DNA adduct formation; type: biochemical; details: 0.5 μM, calf thymus DNA 0.4 mg/mL, pH 7.4, 30 min, 37 °C
UGT1A9 [3] = target: T1, UGT1A9 (Homo sapiens, UniProt O60656); details: cited from earlier work
T1 sequence (O60656 26-530): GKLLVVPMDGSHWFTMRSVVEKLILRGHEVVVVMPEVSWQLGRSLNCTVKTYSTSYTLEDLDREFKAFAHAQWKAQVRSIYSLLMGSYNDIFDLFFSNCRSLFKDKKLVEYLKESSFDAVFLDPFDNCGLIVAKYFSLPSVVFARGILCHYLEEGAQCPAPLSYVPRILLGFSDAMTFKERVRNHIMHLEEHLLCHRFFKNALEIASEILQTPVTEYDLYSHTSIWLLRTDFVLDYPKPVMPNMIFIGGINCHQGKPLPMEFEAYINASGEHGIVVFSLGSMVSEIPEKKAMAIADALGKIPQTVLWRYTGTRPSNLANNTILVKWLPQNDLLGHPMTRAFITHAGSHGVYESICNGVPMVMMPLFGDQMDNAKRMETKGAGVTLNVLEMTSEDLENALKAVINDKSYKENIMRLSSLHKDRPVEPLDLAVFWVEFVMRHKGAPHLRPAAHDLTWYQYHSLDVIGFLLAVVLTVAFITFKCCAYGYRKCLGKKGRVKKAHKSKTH

[4] = system: human microsomes (liver, kidney, colon, rectum); type: in vitro ADME; details: 1 μM, pH 7.5
UGT1A1 [5] = details: cited from earlier work
UGT2B10 [6] = details: cited from earlier work
UGT2B10 [7] = details: cited from earlier work; remark: listed apart in the source
UGT1A1 [8] = assay: Inhibition of estradiol-3-O-Gluc formation in human liver microsomes; type: biochemical; details: niflumic acid 0.1-2.5 μM, estradiol 25 μM
UGT1A9 [9] = target: T1, UGT1A9; assay: Inhibition of propofol glucuronidation in human liver microsomes; type: biochemical; details: niflumic acid 0.1-2.5 μM, propofol 100 μM
human kidney microsomes [10] = assay: Inhibition of HONH-AαC glucuronidation in human kidney microsomes; type: biochemical; details: niflumic acid 0.1-2.5 μM, HONH-AαC 1 μM
[11] = system: other UGT1A and UGT2B isoforms; details: cited from earlier work
human liver microsomes = assay: Inhibition of HONH-AαC glucuronidation in human liver microsomes; type: biochemical; details: niflumic acid 0.1-2.5 μM, HONH-AαC 1 μM
rodents = details: cited from earlier work

Question: With `Nc1ccc2c(n1)[nH]c1ccccc12` [AαC, 2-Amino-9H-pyrido[2,3-b]indole] as the compound, how does the “rate of P450-mediated N-oxidation” value (human kidney microsomes [1]) read?
Answer: very low

Question: What about the “mutations and early biomarkers of neoplasia” value (mice; colon of mice) of the same compound?
Answer: induces lacI mutations and aberrant crypt foci

Question: What about the tumor induction (mice; mice) of the same compound?
Answer: induces liver and blood vessel tumors

Question: Which half-life [2] does the source give for `O=C(O)[C@H]1O[C@@H](ONc2ccc3c(n2)[nH]c2ccccc23)[C@H](O)[C@@H](O)[C@@H]1O` [AαC-HN^2-O-Gluc, O-(β-D-glucosidurony1)-2-hydroxyamino-9H-pyrido[2,3-b]indole] here?
Answer: exceeds 6 h

Question: Which “DNA adduct formation (dG-C8-AαC / dG-C8-PhIP)” value (calf thymus DNA) does the source give for `O=C(O)[C@H]1O[C@@H](N(O)c2ccc3c(n2)[nH]c2ccccc23)[C@H](O)[C@@H](O)[C@@H]1O` [AαC-HON^2-Gluc, N^2-(β-D-glucosidurony1)-2-hydroxyamino-9H-pyrido[2,3-b]indole] here?
Answer: considerably lower than HONH-AαC

Question: Which results are given for `ONc1ccc2c(n1)[nH]c1ccccc12` [HONH-AαC, 2-hydroxyamino-9H-pyrido[2,3-b]indole]?
Answer: Km (UGT1A9 [3]): 6.3 µM; principal Gluc conjugate formed [4]: AαC-HN^2-O-Gluc; predominant Gluc conjugate formed ([4]; 20 min): AαC-HON^2-Gluc; DNA adduct formation (dG-C8-AαC / dG-C8-PhIP) (calf thymus DNA): comparable levels

Question: With `Cn1c(NO)nc2ncc(-c3ccccc3)cc21` [HONH-PhIP, 2-hydroxyamino-1-methyl-6-phenylimidazo[4,5-b]pyridine] as the compound, how does the Km (UGT1A9 [3]) read?
Answer: 36 µM

Question: And the Km (UGT1A1 [5])?
Answer: 19 µM

Question: And the Km (UGT2B10 [6])?
Answer: 58 µM

Question: And the “DNA adduct formation (dG-C8-AαC / dG-C8-PhIP)” value (calf thymus DNA)?
Answer: comparable levels

Question: Which “effect on UGT2B10 activity” value (UGT2B10 [7]) does the source give for `O=C(O)c1cccnc1Nc1cccc(C(F)(F)F)c1` [Niflumic acid, niflumic acid] here?
Answer: does not alter

Question: What about the “effect on formation of estradiol-3-O-Gluc (UGT1A1)” value (UGT1A1 [8]) of the same compound?
Answer: unaffected

Question: What about the “inhibition of glucuronidation of propofol (UGT1A9 substrate)” value (UGT1A9 [9]) of the same compound?
Answer: effective in inhibiting

Question: What about the “effect on AαC-HN^2-O-Gluc formation” value (human kidney microsomes [10]) of the same compound?
Answer: greatly decreased

Question: And the “effect on AαC-HON^2-Gluc formation” value (human kidney microsomes [10])?
Answer: greatly decreased

Question: And the “effect on activities of other UGT1A and UGT2B isoforms” value [11]?
Answer: little effect

Question: And the “effect on AαC-HN^2-O-Gluc formation” value (human liver microsomes)?
Answer: concentration-dependent inhibition

Question: What about the “effect on AαC-HON^2-Gluc formation” value (human liver microsomes) of the same compound?
Answer: unchanged

Question: What does the source list for `Cn1c(N)nc2ncc(-c3ccccc3)cc21` [PhIP, 2-amino-1-methyl-6-phenylimidazo[4,5-b]pyridine]?
Answer: rate of P450-mediated N-oxidation (human kidney microsomes [1]): very low; cancer induction (rodents): induces lymphoma, pancreatic, colorectal, and prostate cancers

Question: With `Cn1c(NO[C@@H]2O[C@H](C(=O)O)[C@@H](O)[C@H](O)[C@H]2O)nc2ncc(-c3ccccc3)cc21` [PhIP-HN^2-O-Gluc, O-(β-D-glucosidurony1)-2-hydroxyamino-1-methyl-6-phenylimidazo[4,5-b]pyridine] as the compound, how does the “DNA adduct formation (dG-C8-AαC / dG-C8-PhIP)” value (calf thymus DNA) read?
Answer: higher amounts of dG-C8-PhIP than HONH-PhIP

Question: For `Cn1c(N(O)[C@@H]2O[C@H](C(=O)O)[C@@H](O)[C@H](O)[C@H]2O)nc2ncc(-c3ccccc3)cc21` [PhIP-HON^2-Gluc, N^2-(β-D-glucosidurony1)-2-hydroxyamino-1-methyl-6-phenylimidazo[4,5-b]pyridine], which “DNA adduct formation (dG-C8-AαC / dG-C8-PhIP)” value (calf thymus DNA) is on record?
Answer: not detected
